Literature values as cited in patent US20180221332A1, “Flash-Melt Cannabinoid Formulations” (CannTab Therapeutics Limited, priority 2017, published 2018).

Tests used:
[1] = after administration
[2] = NICHD/FDA Oral Formulations Platform Report 1; low solubility, unknown permeability

SMILES: CCCCCc1cc(O)c2c(c1)OC(C)(C)[C@@H]1CCC(C)=C[C@@H]21 [Dronabinol, (−)-trans-Δ^9-tetrahydrocannabinol]
- duration of appetite stimulant effect [1]: ≥ 24 h
- biopharmaceutics class [2]: class 2 or class 4
